Reference: the NIST ThermoML archive (doi:10.1016/j.jct.2018.09.010)
Numbers after ± are expanded uncertainties.

Assay: relative permittivity at various frequencies (dimensionless); xn = mol fraction of the nth substance listed
Conditions: Gas, Frequency=385 MHz, Reentrant cavity resonator

[C-]#[O+] [carbon monoxide] + O=C=O
Conditions | relative permittivity
255.04 K, 1972.8 kPa, x1 = 0.7493 | 1.01697 ± 0.075
255.04 K, 3976.6 kPa, x1 = 0.7493 | 1.03607 ± 0.075
255.05 K, 3004.5 kPa, x1 = 0.4959 | 1.03119 ± 0.075
255.05 K, 5999.5 kPa, x1 = 0.7493 | 1.05751 ± 0.076
255.06 K, 1479.4 kPa, x1 = 0.4959 | 1.01417 ± 0.075
255.06 K, 1511.8 kPa, x1 = 0.4959 | 1.01451 ± 0.075
255.06 K, 2026.5 kPa, x1 = 0.7493 | 1.01747 ± 0.075
255.06 K, 3003.3 kPa, x1 = 0.4959 | 1.03118 ± 0.075
255.06 K, 4001.7 kPa, x1 = 0.4959 | 1.04416 ± 0.076
255.06 K, 5990.8 kPa, x1 = 0.7493 | 1.05742 ± 0.076
255.06 K, 7992.1 kPa, x1 = 0.7493 | 1.08067 ± 0.077
273.14 K, 1964 kPa, x1 = 0.7493 | 1.01551 ± 0.075
273.14 K, 3995.6 kPa, x1 = 0.7493 | 1.03288 ± 0.075
273.14 K, 5997.2 kPa, x1 = 0.7493 | 1.05136 ± 0.076
273.15 K, 2016.4 kPa, x1 = 0.7493 | 1.01594 ± 0.075
273.15 K, 4009 kPa, x1 = 0.7493 | 1.033 ± 0.075
273.15 K, 5997.2 kPa, x1 = 0.7493 | 1.05135 ± 0.076
273.15 K, 7991.2 kPa, x1 = 0.7493 | 1.07098 ± 0.077
273.2 K, 1454.1 kPa, x1 = 0.4959 | 1.01273 ± 0.075
273.2 K, 2480.8 kPa, x1 = 0.4959 | 1.02261 ± 0.075
273.2 K, 4502 kPa, x1 = 0.4959 | 1.0448 ± 0.076
273.2 K, 5505.6 kPa, x1 = 0.4959 | 1.05746 ± 0.076
273.21 K, 3471.2 kPa, x1 = 0.4959 | 1.03299 ± 0.075
293.23 K, 1980.8 kPa, x1 = 0.7493 | 1.0144 ± 0.075
293.23 K, 3995.9 kPa, x1 = 0.7493 | 1.02993 ± 0.075
293.23 K, 4015.8 kPa, x1 = 0.7493 | 1.0301 ± 0.075
293.23 K, 6011.2 kPa, x1 = 0.7493 | 1.04635 ± 0.076
293.23 K, 6015 kPa, x1 = 0.7493 | 1.04638 ± 0.076
293.23 K, 8001.1 kPa, x1 = 0.7493 | 1.0633 ± 0.077
293.24 K, 2023.8 kPa, x1 = 0.7493 | 1.01472 ± 0.075
293.25 K, 2039.7 kPa, x1 = 0.4959 | 1.0167 ± 0.075
293.25 K, 3988.8 kPa, x1 = 0.4959 | 1.03469 ± 0.075
293.25 K, 4025.1 kPa, x1 = 0.4959 | 1.03504 ± 0.075
293.25 K, 5986 kPa, x1 = 0.4959 | 1.05557 ± 0.076
293.26 K, 1975.2 kPa, x1 = 0.4959 | 1.01614 ± 0.075
293.26 K, 6541.1 kPa, x1 = 0.4959 | 1.06185 ± 0.076
313.26 K, 1937.1 kPa, x1 = 0.4959 | 1.01462 ± 0.075
313.26 K, 2024.1 kPa, x1 = 0.4959 | 1.0153 ± 0.075
313.26 K, 5954.7 kPa, x1 = 0.4959 | 1.04939 ± 0.076
313.26 K, 6218.2 kPa, x1 = 0.4959 | 1.0519 ± 0.076
313.27 K, 4013.4 kPa, x1 = 0.4959 | 1.03178 ± 0.075
313.28 K, 1974.2 kPa, x1 = 0.7493 | 1.01333 ± 0.075
313.28 K, 2022.8 kPa, x1 = 0.7493 | 1.01367 ± 0.075
313.28 K, 3992.7 kPa, x1 = 0.7493 | 1.02755 ± 0.075
313.28 K, 5954.9 kPa, x1 = 0.7493 | 1.04192 ± 0.076
313.28 K, 7996.5 kPa, x1 = 0.7493 | 1.05736 ± 0.076
313.29 K, 6015.3 kPa, x1 = 0.7493 | 1.04237 ± 0.076
